pIC50: −log10 of the molar value.
What was measured:
[1] = target: GST-fused human Keap1 (amino acid residues: 325-642) protein (Homo sapiens (Human), UniProt Q14145); test: FP assay (in vitro): inhibition of binding between Nrf2 and Keap1 by fluorescence polarization; conditions: 20 nM GST-fused human Keap1, 10 nM FITC-labeled Nrf2 peptide, 2 hr at room temperature
Procedure: Experimental Example 1: FP Assay (In Vitro)
The inhibitory activity of test compounds on the binding between Nrf2 and Keap1 was determined by fluorescence polarization. A solution of 50 mM Tris-HCl pH.8.0 (NACALAI, REF: 06938-15), and 5 mM DTT (SIGMA-ALDRICH, REF: 646563-10X.5 mL) was used as a buffer solution. 8 μL of a buffer solution containing 40 nM GST-fused human Keap1 (amino acid residues: 325-642) protein (Protein tech, REF: Ag0779) was taken in a black 384-well plate (final concentration 20 nM), and 4 μL of the test compound solution prepared to each concentration in buffer solution was added thereto. A well containing a portion of the buffer solution without Keap1 was placed as a negative control. A well with no compound was used as a positive control. 40 nM of FITC-labeled Nrf2 peptide (FITC-X-LQLDEETGEFLPIQ (X=ε-Acp), Peptide Institute Inc.) was added thereto (10 nM final concentration). The wells were incubated at room temperature for 2 hr, and then fluorescence polarization was measured with a plate reader SPECTRAMAX Paradigm (Molecular devices) at excitation wavelength of 485 nm and fluorescence wavelength of 535 nm. The fluorescence polarization of the negative control was set to 100% inhibition and that of the positive control to 0% inhibition, and the inhibitory rate upon addition of the test compound was calculated using the following formula.

[2] = tested on: NQO1 activity in Hepa1c1c7 cells; test: NAD(P)H: quinone oxidoreductase-1 (NQO1) enzyme induction assay (in vitro); format: cell-based, mouse; conditions: about 48 hr, ratio from the base without the compound; for fold induction at 0.4 µM: Mus musculus, Hepa-1c1c7, NQO1 activity upon addition of 400 nM of test compound
Procedure: Experimental Example 2: NAD(P)H: Quinone Oxidoreductase-1 (NQO1) Enzyme Induction Assay (In Vitro)
The NQO1 assay was performed based on a previous report (Methods in Enzymology 2004; 382: 243-258). Hepa1c1c7 cells (mouse hepatocyte cell line, ATCC, cat. no. CRL-2026) were cultured in D-MEM medium containing 10% FBS and 1% penicillin/streptomycin (5% CO2, 37° C.), and seeded into 96-well plates (Corning REF. 353072) at 1×10^4 cells/well. A portion of the wells were prepared with medium only for background measurement without seeding cells. The next day, 400 nM of the test compound (0.004% of the final concentration in DMSO) dissolved in DMSO was added thereto, and the wells were incubated for about 48 hr. A well without adding the test compound was prepared for base activity assay in part.
Cell lysate (solution containing 0.8% digitonin, 2 mM EDTA), reaction solution (solution containing 25 mM Tris-HCl, 0.07% albumin, 0.01% Tween-20, 2 U/mL glucose-6-phosphate dehydrogenase, 5 μM flavin adenine dinucleotide, 1 μM glucose-6-phosphate, 30 μM nicotinamide adenine dinucleotide phosphate, 0.03% 3-(4,5-dimethyl-2-thiazolyl)-2,5-diphenyltetrazolium bromide (MTT), and 50 μM menadione), stop solution (solution containing 0.3 mM dicoumarol and 5 mM potassium dihydrogen phosphate, pH 7.4) were prepared. After the medium was removed, 50 μL of the cell lysate was added and incubated at 37° C. for 10 minutes, followed by shaking at room temperature for 10 minutes. 200 μL of reaction solution was added thereto, and allowed to stand for 5 minutes at room temperature. 50 μL of the stop solution was added thereto, and absorbance was measured at 610 nm on a SpectraMax PLUS384 (Molecular devices) or POWERSCAN HT (DS Pharma Biomedical). The test results were analyzed in Excel, and the NQO1 activity upon addition of 400 nM of test compound was calculated as a ratio from the base without the compound.
The results of each test compound in this test are shown in the following Table 2 (A: 5<NQO1 activity ratio, B: 3<NQO1 activity ratio 5, C: 1.5<NQO1 activity ratio 3).

GST-fused human Keap1 (amino acid residues: 325-642) protein, sequence (Q14145 325-624 limits assumed): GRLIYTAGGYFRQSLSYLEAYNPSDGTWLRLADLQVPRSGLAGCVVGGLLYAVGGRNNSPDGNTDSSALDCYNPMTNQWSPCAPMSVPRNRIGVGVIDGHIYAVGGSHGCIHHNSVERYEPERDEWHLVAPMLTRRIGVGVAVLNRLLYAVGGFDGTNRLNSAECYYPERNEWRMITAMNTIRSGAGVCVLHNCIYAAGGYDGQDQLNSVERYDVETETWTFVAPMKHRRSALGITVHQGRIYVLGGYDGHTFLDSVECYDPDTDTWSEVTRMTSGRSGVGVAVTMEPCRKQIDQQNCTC

Row | Compound | pIC50 [1] | fold induction at 0.4 µM [2] | activity ratio ([2]; NQO1 activity upon addition of 400 nM of test compound)
1 | CC[C@@H]1CN(Cc2cc([C@@H](CC(=O)O)c3ccc4c(nnn4CC(F)(F)F)c3C)cc3ccsc23)Cc2nc(O)ccc2O1 (single isomer, unassigned) [Example 27] | 7.52 to 8.00 | > 5 | 
2 | CC[C@@H]1CN(Cc2cc([C@@H](CC(=O)O)c3ccc4c(nnn4CC(F)(F)F)c3C)cc3ccsc23)Cc2nc(O)ccc2O1 (single isomer, unassigned) [Example 28] | 7.52 to 8.00 |  | 
3 | CC[C@@H]1CN(Cc2cc([C@@H](CC(=O)O)c3ccn4c(C)nnc4c3C)cc3ccsc23)Cc2nc(O)ccc2O1 (single isomer, unassigned) [Example 52, (3R*)-3-(3,8-Dimethyl[1,2,4]triazolo[4,3-a]pyridin-7-yl)-3-(7-{[(2R)-2-ethyl-7-hydroxy-2,3-dihydropyrido[2,3-f][1,4]oxazepin-4(5H)-yl]methyl}-1-benzothiophen-5-yl)propanoic acid] | 6.52 to 7.52 | 3 to 5 | 
4 | CC[C@@H]1CN(Cc2cc([C@@H](CC(=O)O)c3ccn4c(C)nnc4c3C)cc3ccsc23)Cc2nc(O)ccc2O1 (single isomer, unassigned) [Example 53, (3S*)-3-(3,8-Dimethyl[1,2,4]triazolo[4,3-a]pyridin-7-yl)-3-(7-{[(2R)-2-ethyl-7-hydroxy-2,3-dihydropyrido[2,3-f][1,4]oxazepin-4(5H)-yl]methyl}-1-benzothiophen-5-yl)propanoic acid] | 7.52 to 8.00 |  | B (B: 3<NQO1 activity ratio 5)
5 | Cc1c(C(CC(=O)O)c2cc(CN3Cc4nc(O)ccc4OC4(CC4)[C@H]3C)c3sccc3c2)ccc2c1nnn2C (single isomer, unassigned) [Example 58, (3R*)-3-(1,4-Dimethyl-1H-benzotriazol-5-yl)-3-(7-{[(3′R)-7′-hydroxy-3′-methyl-3′H-spiro[cyclopropane-1,2′-pyrido[2,3-f][1,4]oxazepin]-4′ (5′H)-yl]methyl}-1-benzothiophen-5-yl)propanoic acid] | 5.52 to 6.52 | 1.5 to 3 | 
6 | Cc1c(C(CC(=O)O)c2cc(CN3Cc4nc(O)ccc4OC4(CC4)[C@H]3C)c3sccc3c2)ccc2c1nnn2C (single isomer, unassigned) [Example 59, (3S*)-3-(1,4-Dimethyl-1H-benzotriazol-5-yl)-3-(7-{[(3′R)-7′-hydroxy-3′-methyl-3′H-spiro[cyclopropane-1,2′-pyrido[2,3-f][1,4]oxazepin]-4′ (5′H)-yl]methyl}-1-benzothiophen-5-yl)propanoic acid] | 5.52 to 6.52 |  | 
7 | Cc1c(C(CC(=O)O)c2cc(CN3Cc4nc(O)ccc4OC4(CC4)[C@@H]3C)c3sccc3c2)ccc2c1nnn2C (single isomer, unassigned) [Example 60, (3R*)-3-(1,4-Dimethyl-1H-benzotriazol-5-yl)-3-(7-{[(3′S)-7′-hydroxy-3′-methyl-3′H-spiro[cyclopropane-1,2′-pyrido[2,3-f][1,4]oxazepin]-4′(5′H)-yl]methyl}-1-benzothiophen-5-yl)propanoic acid] | 6.52 to 7.52 | > 5 | 
8 | Cc1c(C(CC(=O)O)c2cc(CN3Cc4nc(O)ccc4OC4(CC4)[C@@H]3C)c3sccc3c2)ccc2c1nnn2C (single isomer, unassigned) [Example 61, (3S*)-3-(1,4-Dimethyl-1H-benzotriazol-5-yl)-3-(7-{[(3′S)-7′-hydroxy-3′-methyl-3′H-spiro[cyclopropane-1,2′-pyrido[2,3-f][1,4]oxazepin]-4′ (5′H)-yl]methyl}-1-benzothiophen-5-yl)propanoic acid] | 6.52 to 7.52 |  | 
9 | CC[C@@H]1CN(Cc2cc(C(CC(=O)O)c3ccc4c(nnn4C)c3C)cc3ccsc23)Cc2ncc(O)cc2O1 (single isomer, unassigned) [Example 65, (3R*)-3-(1,4-Dimethyl-1H-benzotriazol-5-yl)-3-(7-{[(2R)-2-ethyl-8-hydroxy-2,3-dihydropyrido[2,3-f][1,4]oxazepin-4(5H)-yl]methyl}-1-benzothiophen-5-yl)propanoic acid] | 6.52 to 7.52 | > 5 | 
10 | CC[C@@H]1CN(Cc2cc(C(CC(=O)O)c3ccc4c(nnn4C)c3C)cc3ccsc23)Cc2ncc(O)cc2O1 (single isomer, unassigned) [Example 66, (3S*)-3-(1,4-Dimethyl-1H-benzotriazol-5-yl)-3-(7-{[(2R)-2-ethyl-8-hydroxy-2,3-dihydropyrido[2,3-f][1,4]oxazepin-4(5H)-yl]methyl}-1-benzothiophen-5-yl)propanoic acid] | 6.52 to 7.52 |  | 
11 | Cc1c([C@H](CC(=O)O)c2cc(CN3Cc4nc(O)ccc4CC(C4CC4)C3)c3sccc3c2)ccc2c1nnn2C (single isomer, unassigned) [Example 88, (3R)-3-(7-{[(6S*)-6-Cyclopropyl-2-hydroxy-5,6,7,9-tetrahydro-8H-pyrido[2,3-c]azepin-8-yl]methyl}-1-benzothiophen-5-yl)-3-(1,4-dimethyl-1H-benzotriazol-5-yl)propanoic acid] | 6.52 to 7.52 | > 5 | 
12 | Cc1c([C@H](CC(=O)O)c2cc(CN3Cc4nc(O)ccc4CC(C4CC4)C3)c3sccc3c2)ccc2c1nnn2C (single isomer, unassigned) [Example 89, (3R)-3-(7-{[(6R*)-6-Cyclopropyl-2-hydroxy-5,6,7,9-tetrahydro-8H-pyrido[2,3-c]azepin-8-yl]methyl}-1-benzothiophen-5-yl)-3-(1,4-dimethyl-1H-benzotriazol-5-yl)propanoic acid] | 6.52 to 7.52 |  | 
13 | Cc1c([C@H](CC(=O)O)c2cc(CN3Cc4nc(O)ccc4CC(C4CC4)C3)c3sccc3c2)cnc2c1nnn2C (single isomer, unassigned) [Example 90, (3R)-3-(7-{[(6R*)-6-Cyclopropyl-2-hydroxy-5,6,7,9-tetrahydro-8H-pyrido[2,3-c]azepin-8-yl]methyl}-1-benzothiophen-5-yl)-3-(3,7-dimethyl-3H-[1,2,3]triazolo[4,5-b]pyridin-6-yl)propanoic acid] | 6.52 to 7.52 | > 5 | 
14 | Cc1c([C@H](CC(=O)O)c2cc(CN3Cc4nc(O)ccc4CC(C4CC4)C3)c3sccc3c2)cnc2c1nnn2C (single isomer, unassigned) [Example 91, (3R)-3-(7-{[(6S*)-6-Cyclopropyl-2-hydroxy-5,6,7,9-tetrahydro-8H-pyrido[2,3-c]azepin-8-yl]methyl}-1-benzothiophen-5-yl)-3-(3,7-dimethyl-3H-[1,2,3]triazolo[4,5-b]pyridin-6-yl)propanoic acid] | 6.52 to 7.52 |  | 
15 | CC[C@@H]1CN(Cc2cc([C@H](CC(=O)O)c3ccc4c(nnn4C)c3C)cc3ccsc23)Cc2nc(O)ccc2O1 [Example 1, (3S)-3-(1,4-Dimethyl-1H-benzotriazol-5-yl)-3-(7-{[(2R)-2-ethyl-7-hydroxy-2,3-dihydropyrido[2,3-f][1,4]oxazepin-4(5H)-yl]methyl}-1-benzothiophen-5-yl)propanoic acid] | 7.52 to 8.00 | > 5 | 
16 | CC[C@@H]1CN(Cc2cc([C@H](c3ccc4c(nnn4C)c3C)C(C)(C)C(=O)O)cc3ccsc23)Cc2nc(O)ccc2O1 [Example 12, (3R)-3-(1,4-Dimethyl-1H-benzotriazol-5-yl)-3-(7-{[(2R)-2-ethyl-7-hydroxy-2,3-dihydropyrido[2,3-f][1,4]oxazepin-4(5H)-yl]methyl}-1-benzothiophen-5-yl)-2,2-dimethylpropanoic acid] | 5.52 to 6.52 |  | 

Reference: US20250296939A1, “BENZOTHIOPHENE COMPOUND” (Kyoto Pharmaceutical Industries, Ltd., priority 2022, published 2025)
